Data as given in patent US20230355596A1, “COMPOSITIONS AND METHODS OF USING NMDAR INHIBITORS AND KINASE INHIBITORS TO TREAT LIVER CANCER” (The University of Hong Kong, priority 2022, published 2023).
Where two headings read alike, the source gives them in different places.

What was measured:
[1] = test system: MHCC97L-derived and patient-derived xenografts; assay: Western blot and immunohistochemistry of resected xenografts; type: in vivo, mouse; details: HCC patient-derived xenograft PDX1
Description: 5×10^5 MHCC97L cells, 3.5×10^5 cells (for PDX1) and 1×10^5 cells (for PDX2) dissociated from HCC patient derived xenograft (PDX), were injected subcutaneously into the left flank of 4 to 5-week-old male BALB/c nude mice and NOD/SCID mice, respectively. 1×10^4 RIL-175 cells were injected into the right median lobe of the livers from 9 to 12-week-old male C57BL/6N mice. Size of subcutaneously xenografted tumors was measured by an external caliper and tumor volume was estimated by the equation: Volume=½ (Length×Width^2), where the length and width represent the largest and smallest diameters, respectively. Drug administration began when the subcutaneous tumor reached ˜0.05 cm3 in size or at day 5 post-injection (for RIL-175 cells), at which point mice were divided into four groups randomly for daily treatment with DMSO, ifenprodil (20 mg/kg/day, intraperitoneally), sorafenib (28 mg/kg/day, orally), or the combination. […] Tumor volume and body weight of each mouse were then measured every two days. […] The mice were checked every two days, and tumor incidence and latency were recorded. […]
Cells or homogenized tissues collected from xenografts were lysed by 2X RIPA lysis buffer supplemented with protease inhibitor cocktail (ProBlock™ Gold Mammalian, Goldbio), PhosSTOP (Roche), 1 mM Na3VO4, and 1 mM NaF. […] Supernatants were quantified using the Bradford assay (BioRad). […]

[2] = test system: patient-derived xenografts; assay: Limiting dilution and serial transplantation into secondary mouse recipients; type: in vivo
Description: 5×10^5 MHCC97L cells, 3.5×10^5 cells (for PDX1) and 1×10^5 cells (for PDX2) dissociated from HCC patient derived xenograft (PDX), were injected subcutaneously into the left flank of 4 to 5-week-old male BALB/c nude mice and NOD/SCID mice, respectively. 1×10^4 RIL-175 cells were injected into the right median lobe of the livers from 9 to 12-week-old male C57BL/6N mice. Size of subcutaneously xenografted tumors was measured by an external caliper and tumor volume was estimated by the equation: Volume=½ (Length×Width^2), where the length and width represent the largest and smallest diameters, respectively. Drug administration began when the subcutaneous tumor reached ˜0.05 cm3 in size or at day 5 post-injection (for RIL-175 cells), at which point mice were divided into four groups randomly for daily treatment with DMSO, ifenprodil (20 mg/kg/day, intraperitoneally), sorafenib (28 mg/kg/day, orally), or the combination. Ifenprodil and sorafenib were purchased from Selleckchem (#54091) and LC laboratories (#S-8502), respectively. The drug treatment was started after grouping, and lasted for 21 days. Tumor volume and body weight of each mouse were then measured every two days. The estimated tumor volume served as a guide for determining the day when the mice were sacrificed to take actual measurements on the resected tumors. The mice were sacrificed, and the tumor tissues were collected at the end of treatment. Part of the tumor tissues was snap-frozen in liquid nitrogen for protein extraction and immunoblot analysis. Part of the tissues was fixed in 4% paraformaldehyde (PFA) at room temperature for histological staining. The remaining tissues were dissociated into single cells for the limiting dilution spheroid formation assay. To evaluate the tumor-initiating and self-renewal abilities of the drug-treated tumors derived from MHCC97L cells and PDX1 in vivo, limiting dilution and serial transplantation assays were performed. 500, 1,000, 5,000, 10,000, 50,000 cells dissociated from the residual tumor tissues were injected subcutaneously into either flank of 4-5 week-old mice. No drug treatment was further applied. The mice were checked every two days, and tumor incidence and latency were recorded. To evaluate HCC metastases, 4×10^4 RIL-175 cells were injected through tail vein into 6- to 8-week-old male nude mice. Drug administration began at day 5 post-injection, and daily treatment with DMSO, ifenprodil (20 mg/kg/day, intraperitoneally), sorafenib (28 mg/kg/day, orally), or the combination was applied for 10 days before resection of lung tumors. At five and twelve days after the tail-vein injection, the mice were administered 100 mg/kg D-luciferin via peritoneal injection for bioluminescent imaging (using the PE IVIS Spectrum in vivo imaging system) to monitor the lung metastasis.
To determine the efficacy of the drug combination of IFEN and SOR in vivo, MHCC97L cell- and HCC patient-derived xenografts were implanted into mice. […] Briefly, HCC patient-derived xenograft was subcutaneously injected in NOD/SCID mice and treated with 20 mg/kg ifenprodil, 28 mg/kg sorafenib, or combination of ifenprodil and sorafenib, for 21 days. Protein lysates were collected from the resected tumors and analyzed by Western blot. […] Spheroid formation assay was performed on cells being harvested from the same residual xenografts to evaluate their self-renewal ability. […] Combined treatment of ifenprodil and sorafenib decreased the repropagation capability of HCC cells in vivo. Residual tumor cells were harvested from the drug(s)-treated patient-derived xenografts and 50,000, 10,000, 5,000, 1,000, and 500 cells were transplanted into secondary NOD/SCID mouse recipients (n=6 per group). Average tumor latency and incidence were recorded, and tumor-initiating cell frequency was calculated.

NMDAR subunits = details: cited from earlier work
MHCC97L cells = assay: MTT cell viability assay and drug interaction analysis; type: cell-based, human; details: single drug
HCC patients [3] = details: Asian study; cited from earlier work
HCC patients [4] = details: cited from earlier work
HCC patients [5] = details: phase III, first line; cited from earlier work
[6] = 50,000 cells transplanted, n=6 per group
[7] = 50,000 cells transplanted, secondary NOD/SCID recipients

For `CC(C(O)c1ccc(O)cc1)N1CCC(Cc2ccccc2)CC1` (centres unmarked) [Ifenprodil, ifenprodil], the “tumor vasculature (CD31-positive vessels)” value [1] was “inhibited tumor vasculature”, the Average tumor latency ([2]; 500 cells transplanted) was 33 days and the Tumor incidence ([2]; 500 cells transplanted) was 4/6. For the same compound, the Average tumor latency ([2]; 1,000 cells transplanted) was 28.33 days, the Tumor incidence ([2]; 1,000 cells transplanted) was 6/6 and the Average tumor latency ([2]; 5,000 cells transplanted) was 31.33 days. For the same compound, the Tumor incidence ([2]; 5,000 cells transplanted) was 6/6, the Average tumor latency ([2]; 10,000 cells transplanted) was 21 days and the Tumor incidence ([2]; 10,000 cells transplanted) was 6/6. The Tumor incidence [2, 6] was 6/6, the Average tumor latency [2, 7] was 24 days and the NMDAR subunit selectivity (NMDAR subunits) was “more selective for NMDAR1/NMDAR2B subunits”. For the same compound, the “toxicity / safety as therapeutic agent” value (NMDAR subunits) was “tested safe in human”, the “toxicity / safety as therapeutic agent” value (NMDAR subunits; listed as IFEN) was “known safety history” and the “HCC growth, NMDAR inhibitor alone” value (MHCC97L cells) was “did not significantly suppress”.
For `CNC(=O)c1cc(Oc2ccc(NC(=O)Nc3ccc(Cl)c(C(F)(F)F)c3)cc2)ccn1` [Sorafenib, sorafenib], the “tumor vasculature (CD31-positive vessels)” value [1] is given as “inhibited tumor vasculature”, the median overall survival (HCC patients [3]) is given as 6.5 months and the Average tumor latency ([2]; 500 cells transplanted) is given as 34 days. The Tumor incidence ([2]; 500 cells transplanted) was 3/6, the Average tumor latency ([2]; 1,000 cells transplanted) was 29 days and the Tumor incidence ([2]; 1,000 cells transplanted) was 6/6. The Average tumor latency ([2]; 5,000 cells transplanted) was 21.67 days, the Tumor incidence ([2]; 5,000 cells transplanted) was 6/6 and the Average tumor latency ([2]; 10,000 cells transplanted) was 21.33 days. The Tumor incidence ([2]; 10,000 cells transplanted) was 6/6, the Tumor incidence [2, 6] was 6/6 and the Average tumor latency [2, 7] was 22.33 days. The “cancer stemness in the HCC mouse models after treatment” value ([2]; HCC mouse models) was “increased cancer stemness”, the median overall survival (HCC patients [4]; SHARP trial) was 10.7 months and the tolerability (HCC patients [4]; phase III trials) was “generally well tolerated”. The Median survival (HCC patients [5]) was 9.9 months and the discontinuation rate (HCC patients [5]) was 33%.
